Measured values taken from patent publication US8993559B2, “Use of ibogamine congeners for treating obesity” (Albany Medical College, priority 2008, dated 2015).

How the values were obtained:
[1] = active metabolite; cited from earlier work
rats = assay: Drug self-administration and water-reinforced responding in rats (earlier studies); assay type: in vivo, rat
Method: Other work has extended the “anti-addictive” effect of 18-MC to oral intake of ethanol. In all cases, these effects last for at least 24 hours. […] Unlike 18-MC, ibogaine and many other iboga alkaloid congeners (approximately 30 tested) decrease responding for water as well as for drugs. And it was precisely this unique specificity that led to development and study of 18-MC.

| Molecule | presence in plasma as metabolite of 18-MC [1] | responding for drugs (rats; rat, in vivo) | responding for water (non-drug reinforcer) (rats; same doses that decrease drug self-administration) |
| --- | --- | --- | --- |
| COC(=O)[C@@]12C[C@H]3C[C@H](CCO)[C@@H]1N(CCc1c2[nH]c2ccccc12)C3 [18-hydroxycoronaridine] | present in plasma in low concentrations | – | – |
| ibogaine [reference compound] | – | decrease | decrease |
